In assay [1] the target is T1, Multimetal Binding Site (MBS) of Human Serum Albumin (HSA) (Homo sapiens, UniProt P02768).
T1 construct: purchased Sigma
Nature of the assay: Visible-range CD titration of Cu(II) binding at MBS of HSA. The settings on record: for log K app (apparent binding constant of the Cu(II)-MBS complex): 100 mM ligand solution, pH 7.4, 25°C, HSA 0.3–0.5 mM, binary species only assumed; for CI (competitivity index): Cu(II) and Z = 1 μM, HSA = 0.5 mM; for CI (competitivity index) / log K e (MBS + Cu(L) = Cu(MBS)(L)) / log K T (Cu(MBS) + Cu(L) = Cu(MBS)(L) + Cu^2+): pH 7.4; for log K 111 (Cu^2+ + L + MBS = Cu(MBS)(L)): pH 7.4, conditional constant, ternary complex model; for log K e (MBS + Cu(L) = Cu(MBS)(L)): log K 111 = log K 11 + log K e; for log K T (Cu(MBS) + Cu(L) = Cu(MBS)(L) + Cu^2+): log K T = log K 111 − log K 11 − log K app (NaCl). As to the method:
The CD spectra were recorded at 25°C on a Jasco J-715 spectropolarimeter (JASCO, Japan Spectroscopic Co., Hiroshima, Japan), over the range of 300–800 nm, using a 1 cm cuvette. The spectra are expressed in terms of Δε = ε l − ε r, where ε l and ε r are molar absorption coefficients for left and right circularly polarized light, respectively. In buffer experiments the solutions contained 100 mM Hepes, Tris, Sodium Phosphate, or NaCl, at pH 7.4.
HSA was dissolved at 0.3–0.5 mM in either a 100 mM Hepes, Tris, Sodium Phosphate buffers, pH 7.4, or in an unbuffered 100 mM NaCl solution. The pH of both types of samples was controlled to remain in the 7.38–7.42 corridor and adjusted with submicroliter amounts of concentrated HCl or NaOH when necessary. Concentrations of stock solutions of HSA were estimated spectrophotometrically at 279 nm and by Cu(II) titrations. The fractional abundance of NTS in HSA was measured by careful CD titrations using calibrated Cu(II) solutions.
We chose sodium phosphate, Tris and Hepes as the most common substances used for buffering protein solutions at pH 7.4. Their effect on Cu(II) binding to HSA was studied at a 0.1 M concentration stage versus unbuffered 0.1 M NaCl, used as a control solution. The choice of the latter was dictated by the presence of 0.1 M chloride in the blood serum. The pH of the NaCl samples was controlled by additions of small quantities of concentrated HCl or NaOH solutions, when necessary. […] The titrations were monitored by CD spectroscopy, analogously to our previous studies.
A typical titration is presented on Figure 1.
Apparent binding constants (K app) for Cu(II)-MBS complexes in the presence of buffers were obtained from titrations presented in Figure 2. Table 1 contains also further constants, calculated relative to the Cu(II)-MBS interaction in NaCl, taken as corresponding to a 100% binary complex formation.
First, the effects of competition of buffers for Cu(II) were accounted for Literature protonation and Cu(II) binding constants of Hepes, Tris, and phosphate ions were used in these calculations. […] The reactions defining these constants are provided in the footnotes of Table 1.
Briefly, K 111 describes the overall formation of a ternary species, K 11 is the literature binding constant of the Cu(II) complex of a buffer, K e corresponds to the ternary complex formation by addition of buffer-complexed Cu(II) to MBS, and K T is the equilibrium constant of the formation of the ternary complex in the reaction of two binary complexes, thus featuring the tendency of binary components to form a ternary species. All these constants, except for K 11, are conditional in respect to the pH value of 7.4.

The conditions of assay [2]: literature values ref 30–32; cited from earlier work.
The test system of a further assay is HSA. The settings on record: cited from earlier work.

The structures appear in SMILES notation.

T1 sequence (P02768 25-609): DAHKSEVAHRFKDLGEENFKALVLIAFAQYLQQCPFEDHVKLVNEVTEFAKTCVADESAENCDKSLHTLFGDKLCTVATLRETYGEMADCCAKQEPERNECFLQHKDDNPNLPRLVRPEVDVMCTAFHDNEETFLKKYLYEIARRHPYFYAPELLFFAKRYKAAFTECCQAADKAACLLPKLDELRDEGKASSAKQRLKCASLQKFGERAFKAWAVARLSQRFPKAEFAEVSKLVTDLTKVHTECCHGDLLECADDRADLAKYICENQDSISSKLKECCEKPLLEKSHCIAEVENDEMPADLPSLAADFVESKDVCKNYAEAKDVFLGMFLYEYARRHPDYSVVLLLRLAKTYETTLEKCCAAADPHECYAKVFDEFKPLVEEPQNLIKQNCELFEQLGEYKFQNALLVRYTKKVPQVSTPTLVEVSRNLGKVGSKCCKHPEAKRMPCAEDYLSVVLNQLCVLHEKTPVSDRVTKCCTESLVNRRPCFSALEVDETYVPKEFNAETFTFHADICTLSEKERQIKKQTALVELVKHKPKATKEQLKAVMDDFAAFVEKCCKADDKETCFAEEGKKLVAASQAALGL

On to `O=S(=O)(O)CCN1CCN(CCO)CC1` [Hepes, N-2-hydroxyethylpiperazine-N′-2-ethanesulfonic acid], for which, in assay [1], the “log K app (apparent binding constant of the Cu(II)-MBS complex)” value (shortened to “log K app”) is given as 4.45(5), the “log K 111 (Cu^2+ + L + MBS = Cu(MBS)(L))” value is 7.54(5), the “log K e (MBS + Cu(L) = Cu(MBS)(L))” value stood at 4.32 and the “log K T (Cu(MBS) + Cu(L) = Cu(MBS)(L) + Cu^2+)” value (“log K T” below) is listed as −0.28. Moreover, the “CI (competitivity index)” value in assay [1] ([L] = 0.5 mM) came out at 7.71. For the same molecule, in assay [1] ([L] = 100 mM), the “CI (competitivity index)” value amounted to 9.27. For the same molecule, in assay [2], the “log K 11 (Cu^2+ + L = Cu(L))” value is 3.22.

With `[Cl-].[Na+]` [NaCl], the “log K app” value in assay [1] is reported as 4.60(3). In addition, the “CI (competitivity index)” value in assay [1] ([L] = 0.5 mM) and in assay [1] ([L] = 100 mM) was 7.62 in each case.

Turning to `O=P(O)(O)O` [Phosphate, sodium phosphate], in assay [1], the “log K app” value is listed as 5.17(7), the “log K 111 (Cu^2+ + L + MBS = Cu(MBS)(L))” value is reported as 8.2(1), the “log K e (MBS + Cu(L) = Cu(MBS)(L))” value worked out at 5.00 and the “log K T” value is “+0.40”. For the same molecule, the “CI (competitivity index)” value in assay [1] ([L] = 0.5 mM) was found to be 8.04. The “CI (competitivity index)” value in assay [1] ([L] = 100 mM) is given as 10.13. Further, the “log K 11 (Cu^2+ + L = Cu(L))” value in assay [2] is 3.20.

Regarding `NC(CO)(CO)CO` [Tris, 2-amino-2(hydroxymethyl)-1,3-propanediol], in assay [1], the “log K app” value is listed as 4.23(6), the “log K 111 (Cu^2+ + L + MBS = Cu(MBS)(L))” value is given as 8.22(5), the “log K e (MBS + Cu(L) = Cu(MBS)(L))” value turned out to be 4.17 and the “log K T” value is on record as −0.43. Besides, in assay [1] ([L] = 0.5 mM), the “CI (competitivity index)” value was found to be 7.74. In addition, the “CI (competitivity index)” value in assay [1] ([L] = 100 mM) is 9.42. For the same molecule, the “log K 11 (Cu^2+ + L = Cu(L))” value in assay [2] is 4.05.

For the molecule `CC(=O)CC(c1ccccc1)c1c(O)c2ccccc2oc1=O` (stereo not shown) [War, warfarin], in the assay on HSA, the HSA binding constant is 330000 M⁻¹.

Source of the values: publication PMC2864911, “Effect of Common Buffers and Heterocyclic Ligands on the Binding of Cu(II) at the Multimetal Binding Site in Human Serum Albumin” (Bioinorganic Chemistry and Applications, 2010).
